Data on 17 compounds can be found in patent US6069156A, “Indole derivatives as cGMP-PDE inhibitors” (Fujisawa Pharmaceutical Co., Ltd., priority 1995, dated 2000).

The test system of experiment [1] is aorta (spirally cut strips). Description: Smooth Muscle Relaxant: noradrenaline-contracted rat aorta strips. Conditions: contraction by noradrenaline 1 μM, 37° C. More on the design: species or system male Wistar rats. The procedure: The aorta were carefully removed from male Wistar rats, cleaned of fat and extraneous tissue. Spirally cut strips of the aorta were placed in a 25 ml organ bath containing Tyrode solution of the following composition (mM); NaCl, 137; KCl, 2.7; CaCl2, 1.8; NaH2 PO4, 0.4; NaHCO3, 12.0; MgSO4, 1.1; glucose, 5.6. The bath was maintained at 37° C. and bubbled with 95% O2 and 5% CO2. The spirally cut strip was stretched to a resting force of 1.0 g, and the isometric contraction was recorded via a force development transducer on an ink writing recorder. Tissues were equilibrated for 60 minutes before contraction was induced by noradrenaline (NA, 1 μM). The test compounds were cumulatively added to organ bath in increasing concentrations ranging from 10^-8 to 10^-5 M, after maximum stable constriction to NA had been achieved.

For another experiment, the target named is T1, cGMP-PDE (Homo sapiens, UniProt O76074).
T1 construct: cGMP-PDE was separated from other isozymes in human platelets; from tissue; host or cells: human platelets
Description: cGMP-phosphodiesterase (PDE) Assay (human platelets). The format is biochemical. The procedure: cGMP-phosphodiesterase (PDE) Assay
cGMP-PDE was separated from other isozymes in human platelets by a modification of the method of Thompson et. al. (Cyclic Nucleotide Phosphodiesterase (PDE), in Methods of Enzymatic analysis, Vol 4, p127-234, 1984). In enzyme inhibition assays, the test compounds were dissolved in 10% DMSO and then diluted with assay buffer (50 mM Tris-HCl, pH 8.0, 0.1 mM dithiothreitol, 2 mM EGTA and 10 u/ml snake venom), at final concentrations ranging from 10^-10 to 10^-6 M. Assays were performed at 0.1 μM substrate ([^3 H]-cGMP) concentration, at 30° C. for 10 minutes using enzyme dilutions which gave 10-20% hydrolysis of substrate. Each assay was initiated by addition of substrate and terminated by addition of anion exchange resin (Dowex 1-X8, 25 μg/mg) followed by centrifugation for 10 minutes (3000 rpm, at 4° C.). Radioactivity of supernatant (^3 H-GMP) was assayed by liquid scintillation counting.

Experiment [2] has as its system Coronary vasospasm induced with vasopressin. Nature of the experiment: Vasopressin Induced-vasospasm Model (ST segment depression). The format is in vivo, Male Donryu rats. Conditions: 10 mg/kg orally 30 minutes before vasopressin 0.2 iu/kg. The procedure: Vasopressin Induced-vasospasm Model
Male Donryu rats, weighing 160-200 g, were anesthetized intraperitoneally with sodium pentobarbital (60 mg/kg) 15 minutes before intravenous administration of vasopressin, and the femoral vein was cannulated with polyethylene tubing (diameter 0.8 mm). Coronary vasospasm was induced with vasopressin (0.2 iu/kg) dissolved in saline through the cannula in the femoral vein. The each test compound (10 mg/kg) was administered orally 30 minutes before the administration of vasopressin. The standard limb lead II of the electrocardiogram was recorded with an electrocardiograph. The depression of ST segment was measured as the difference in the amplitudes of the ST segment after and just before the administration of vasopressin. The amplitudes of ST segment were measured at intervals of 0.5 minutes for 5 minutes after administration of vasopressin.

Experiment [3] has as its system Vascular smooth muscle cells (vSMCs). Description: vSMC Proliferation ([3H]-thymidine, PDGF-stimulated). It is filed as cell-based, male Wistar rats. The conditions noted are these: Rattus norvegicus, PDGF 10 ng/ml stimulation. On the procedure: Vascular smooth muscle cells (vSMCs) were prepared from explants of the thoracic aorta of 10 week old male Wistar rats by a modification of the method of Ross (J. Cell Biol., 50: 172, 1971). They were cultured in DMEM containing 10% fetal calf serum, 1% penicillin G and 1% streptomycin at 37° C. in a 95% air, 5% CO2 humidified atmosphere. vSMCs were seeded in 24 well plates and cultured in the presence of 10% fetal calf serum for 3 days. Cell growth then was arrested by transfer to serum free DMEA. After 24 hours, each test compound or vehicle was added to medium for 1 hour, and then cells were stimulated by PDGF (10 ng/ml). After 24 hours of additional incubation, [^3 H]-thymidine (1 μCi/ml) was added during the final 4 hours of incubation time, and trichloracetic acid insoluble radioactivity was assayed by liquid scintillation counting.

The subject of a further experiment is Cyclosporin nephritis. Description: Cyclosporin Nephritis Model. The conditions noted are these: 3.2 mg/kg orally twice a day for two weeks; cyclosporin 50 mg/kg daily. The format is in vivo, Spontaneously hypertensive rats. The procedure:
Cyclosporin Nephritis Model
Spontaneously hypertensive rats weighing 250-300 g were used. Cyclosporin dissolved in olive-oil containing 5% ethanol was given orally to the animals in a daily dose 50 mg/kg for 2 weeks. After the last dosing of cyclosporin, 24-hours urine was collected for urinalysis. Blood was withdrawn from the abdominal aorta under ether anesthesia 24 hours after the last dosing of cyclosporin, and plasma was separated by centrifugation for biochemical analysis. The animal were bled to death and kidneys were removed for histopathological examination.
The each test compound (3.2 mg/kg) was dissolved in PEG 400 and given orally by the volume of 1 ml/kg twice a day for two weeks.
(§1) Biochemistry and urinalysis: Urine volume, plasma creatinine, urine creatinine, blood urea nitrogen, plasma sodium, urine sodium, plasma potassium and urine potassium, were measured with an autoanalyzer (TBA-20R Toshiba, OM-6020 Daiichi Kagaku).
Histopathology: The kidneys were fixed in phosphate-buffered 10% formalin and its paraffin specimens were prepared and these sections were stained with hematoxylin.

For a further experiment, the system named is FK506-induced nephritis. Nature of the experiment: Prevention of Experimental FK506-induced Nephritis by Cyclic Nucleotide Regulating Drugs (b). The format is in vivo, male Sprague-Dawley rats. Conditions: 20 mg/kg intramuscularly 30 minutes before FK506 10 mg/kg/day, 14 days. The procedure:
(b) Prevention of Experimental FK506-induced Nephritis by Cyclic Nucleotide Regulating Drugs
FK506 was administered orally to male Sprague-Dawley rats (body weights; 292-329 g) fed with low sodium diet (0.05% Sodium) in a daily dose of 10 mg/kg/day for 14 days. FK506 was provided in a solid dispersion formulation and dissolved in distilled water to a final concentration of 2 mg/ml. Papaverine was dissolved in saline to 5 mg/ml. Dipyridamole (i.v. formulation; 5 mg/ml) was purchased from Dainippon Pharmaceutical Co., Ltd. Papaverine (20 mg/kg) or dipyridamole (20 mg/kg) was administered intramuscularly 30 minutes before FK506 dosing. After the final dosing of FK506, 24-hours urine was collected for urinalysis. Blood was withdrawn from the abdominal aorta under ether anesthesia 24 hours after final dosing of FK506, and plasma was separated for biochemical analysis and plasma renin activity measurements. The kidney was removed from each animal and was fixed with in 10% formalin solution for histological analysis.

A further experiment concerns FK506 nephritis. Nature of the experiment: FK506 Nephritis Model (a). It is filed as in vivo, Spontaneously hypertensive rats. Conditions: orally twice a day for two weeks; FK506 18 mg/kg daily for 1 week. The procedure: (a) Spontaneously hypertensive rats weighing 250-300 g were used. FK506 dissolved in olive-oil containing 5% ethanol was given orally to the animals in a daily dose 18 mg/kg for 1 week. After the last dosing of FK506, 24-hours urine was collected for urinalysis. Blood was withdrawn from the abdominal aorta under ether anesthesia 24 hours after the last dosing of FK506, and plasma was separated by centrifugation for biochemical analysis.
The each test compound was dissolved in PEG 400 and given orally by the volume of 1 ml/kg twice a day for two weeks.
as §1

The mark [4] stands for this setting: 0.1 μM [3H]-cGMP, 30° C., 10 minutes, read-out: IC50.

Broadly, the IC50 is the midpoint of a concentration-inhibition curve.

Like-named read-outs stand apart in the source and are kept apart here.

As for `CC(C)Cc1c(C(=O)C(C)C)c2ccc(C(N)=O)cc2n1Cc1ccccc1Cl` [Example 12, 1-(2-Chlorobenzyl)-2-isobutyl-3-isobutyrylindole-6-carboxamide], the IC50 (in experiment [1]; on cGMP-PDE) was below 100 nM each time. For the same compound, the “inhibiting activity (depression of ST segment)” value (shortened to “inhibiting activity”) in experiment [2] is recorded as “more than 50%”.

In experiment [3], `CCCc1c(C(C)=O)c2ccc(C(N)=O)cc2n1Cc1ccccc1Cl` [Example 3, 3-acetyl-1-(2-chlorobenzyl)-2-propylindole-6-carboxamide] came in with an IC50 below 100 nM. In the experiment with Cyclosporin nephritis, the “recovery in a measure of blood urea nitrogen” value is on record as “more than 50%” and the “recovery in a measure of creatinine clearance (ml/kg/min)” value (shortened to “recovery in a measure … (ml/kg/min)”) is reported as “more than 40%”. Moreover, the IC50 on cGMP-PDE is below 100 nM. Besides, in experiment [2], the “inhibiting activity” value is on record as “more than 50%”.

As for `CCc1c(C(=O)C(C)C)c2ccc(C#N)cc2n1Cc1ccccc1Cl` [Example 43, 1-(2-Chlorobenzyl)-2-ethyl-3-isobutyrylindole-6-carbonitrile], the IC50 (in experiment [1]; against cGMP-PDE) was below 100 nM throughout. Also, the “inhibiting activity” value in experiment [2] was “more than 50%”.

Consider `CCCc1c(C(=O)C(C)C)c2ccc(C(N)=O)cc2n1Cc1ccccc1[N+](=O)[O-]` [37-(7), 3-Isobutyryl-1-(2-nitrobenzyl)-2-propylindole-6-carboxamide], for which the IC50 (in experiment [1]; at cGMP-PDE) was below 100 nM in each case.

In the case of `CCCc1c(C(=O)c2ccccc2)c2ccc(C(N)=O)cc2n1Cc1ccccc1Cl` [38-(1), 3-Benzoyl-1-(2-chlorobenzyl)-2-propylindole-6-carboxamide], the “inhibiting activity” value in experiment [2] was “more than 50%”.

Take `CCCc1nn(C)c2c(=O)[nH]c(-c3cc(S(=O)(=O)N4CCN(C)CC4)ccc3OCC)nc12` [compound (IX), reference compound]: in the experiment on Cyclosporin nephritis, the “recovery in a measure of blood urea nitrogen” value is reported as “more than 50%” and the “recovery in a measure … (ml/kg/min)” value is recorded as “more than 40%”.

Take `CCC(=O)c1c(CC)n(Cc2ccccc2Cl)c2cc(C#N)ccc12` [Example 42, 1-(2-chlorobenzyl)-2-ethyl-3-propionylindole-6-carbonitrile]: the IC50 at cGMP-PDE is below 100 nM. Further, the “inhibiting activity” value in experiment [2] is reported as “more than 50%”.

On to `CCCc1c(C(=O)C(C)C)c2ccc(C(N)=O)cc2n1Cc1ccccc1C` [37-(4), 3-Isobutyryl-1-(2-methylbenzyl)-2-propylindole-6-carboxamide], for which the IC50 (in experiment [1]; against cGMP-PDE) was below 100 nM each time.

Take `CCCc1c([N+](=O)[O-])c2ccc(C(=O)OC)cc2n1Cc1ccccc1Cl` [Example 72, methyl 1-(2-chlorobenzyl)-3-nitro-2-propylindole-6-carboxylate]: the IC50 (in experiment [1]; on cGMP-PDE (setting [4])) was below 100 nM in each case.

For the compound `CCCc1c(C(=O)C(C)C)c2ccc(C(N)=O)cc2n1Cc1ccc(F)cc1Cl` [37-(9), 1-(2-Chloro-4-fluorobenzyl)-3-isobutyryl-2-propylindole-6-carboxamide], the IC50 (in experiment [1]; on cGMP-PDE) was below 100 nM throughout.

In the case of `OCCN(CCO)c1nc(N2CCCCC2)c2nc(N(CCO)CCO)nc(N3CCCCC3)c2n1` [dipyridamole, Dipyridamole], in the experiment with FK506-induced nephritis, the “recovery in a measure of blood urea nitrogen” value was “more than 50%”, the “recovery in a serum creatinine” value is “more than 50%” and the “renofunction of FK506 dosed rats” value is listed as “significantly improved renofunction”.

As for `CCCc1c(C(=O)C2CC2)c2ccc(C(N)=O)cc2n1Cc1cc2c(cc1Cl)OCO2` [73-(33), 1-(6-Chloro-3,4-methylenedioxybenzyl)-3-cyclopropanecarbonyl-2-propylindole-6-carboxamide], the IC50 (in experiment [1]; against cGMP-PDE) was below 100 nM in each case.

`NC(=O)c1ccc2c3c(n(Cc4cc5c(cc4Cl)OCO5)c2c1)C(=O)CCC3` [75-(8), 9-(6-Chloro-3,4-methylenedioxybenzyl)-8-oxo-5,6,7,8-tetrahydrocarbazole-2-carboxamide]: the IC50 (in experiment [1]; on cGMP-PDE (setting [4])) was below 100 nM throughout.

In the case of `O=C(O)C1CCN(c2nc(NCc3ccc4c(c3)OCO4)c3cc(Cl)ccc3n2)CC1` [compound (VIII), reference compound], in the experiment on FK506 nephritis, the “recovery in a measure … (ml/kg/min)” value is “more than 45%” and the “recovery in urinary sodium excretion” value is “more than 50%”. In the experiment on Cyclosporin nephritis, the “recovery in a measure of blood urea nitrogen” value is “more than 50%” and the “recovery in a measure … (ml/kg/min)” value is reported as “more than 40%”.

Take `CCCc1c(C(=O)C2CCCC2)c2ccc(C(N)=O)cc2n1Cc1ccccc1Cl` [73-(36), 1-(2-Chlorobenzyl)-3-cyclopentanecarbonyl-2-propylindole-6-carboxamide]: the IC50 (in experiment [1]; at cGMP-PDE) was below 100 nM each time.

As to `CCc1c(C(=O)C(C)C)c2ccc(C(N)=O)cc2n1Cc1ccccc1Cl` [37-(12), 1-(2-Chlorobenzyl)-2-ethyl-3-isobutyrylindole-6-carboxamide], the IC50 (in experiment [1]; at cGMP-PDE) was below 100 nM each time. For the same compound, the “inhibiting activity” value in experiment [2] is on record as “more than 50%”.

For `COc1ccc(Cc2nccc3cc(OC)c(OC)cc23)cc1OC` [Papaverine], in the experiment with FK506-induced nephritis, the “recovery in a measure of blood urea nitrogen” value was “more than 50%”, the “recovery in a serum creatinine” value was “more than 50%” and the “renofunction of FK506 dosed rats” value is “significantly improved renofunction”.
